# How the values were obtained:
# [1] = test system: IL-8 secretion in 3D PHH:NPC spheroids; assay: IL-8 secretion (Luminex) by 3D PHH:NPC NASH spheroids; format: cell-based, human; details: across 1-10 μM, NASH medium
# Description: Experiments were conducted using HepaPredict's (HepaPredict AB, Sweden) 3D primary human hepatocyte (PHH) spheroid NASH model (e.g. as published in Bell et al. Sci Rep. 2016 May 4; 6:25187. doi: 10.1038/srep25187).
# Cryopreserved primary human hepatocytes were obtained from BioIVT (USA) and nonparenchymal cells (NPC) from LifeNetHealth (USA). After thawing, PHH-NPC cocultures were seeded in a multi-well 96-well Elplasia plate (Corning) in William's E medium containing 11 mM glucose, 10 μg/mL (control) or 10 mg/mL insulin (NASH), 100 nM dexamethasone, 5.5 mg/L transferrin, 6.7 μg/L selenite, 2 mM L-glutamine, 1 U/mL penicillin, 0.1 mg/mL streptomycin, and 10% fetal bovine serum (FBS). […]
# After spheroid formation, cells were exposed to up to five different concentrations of the candidate molecules HK1 or HK3 (0.1 μM, 0.3 μM, 1 μM, 3 μM, and 10 μM) with or without FFA in the culture medium. […] All endpoints were evaluated after 14 days of exposure. […]
# Secreted cytokines (IL-6 and IL-8) were measured in culture supernatants using a customized Magnetic Luminex Performance Assay (Human Cytokine Panel A, R&D Systems). […] The fluorescence intensity was measured using a Bio-Plex 200 system (Bio-Rad), the median fluorescence intensity of each analyte was analyzed with the Bio-Plex Manage software (version 6.2) using a 5-parameter regression algorithm. […]
# [2] = test system: CCl4-intoxicated C57BL/6J mice; assay: CCl4-induced liver fibrosis in mice, oral gavage once daily for 2 weeks; format: in vivo, mouse
# Description: C57BL/6J mice were housed in housing cages GM500 (500 cm^3) throughout the experimental phase. Animals' cages litters were changed at least once a week. They were housed in groups of 4 animals on a normal 12-hour light cycle (at 07:30 pm lights off), 22±2° C. and 55±10% relative humidity. Animals were acclimated for 5 days. During the whole phase standard diet (SAFE, Ref.: U8400G10R) and tap water were provided ad libitum.
# After the acclimation period, mice were intoxicated with CCl4 i.p. twice weekly for 2 weeks to induce liver fibrosis. Body weight was recorded twice weekly for the 2-week intoxication period. After 2 weeks of CCl4 injection (~72 hours after the 4th injection of CCl4), mice were weighted and bled at ~08:00 am to collect blood (150 μL blood on heparin by retro-orbital bleeding under isoflurane anaesthesia) and measure plasma ALT and AST levels. Mice were then randomized into 2 homogenous groups (n=10/group) based on 1) ALT, 2) AST and 3) body weight.
# Mice were treated by oral gavage once daily with vehicle or HK3 for 2 weeks (from day 0 to day 13). During this 2-week treatment period, CCl4 twice weekly i.p. injection was still performed until the end of the in-life phase. Body weight was recorded twice weekly, during the 2-week treatment period.
# At the end of the treatment period (~48 hours after the last injection of CCl4), all mice were weighed and 3 h-fasted at ~10:00 am. The last dose of vehicle and test compound was administered at ~10:00 am, prior to blood collection (retro-orbital bleeding under isoflurane anesthesia for maximal volume/heparin) at ~1:00 pm. Plasma was isolated and immediately stored at −80° C.
# Subsequently, the liver of each mouse was collected and weighted. Liver samples were dissected from the left lateral lobe for formalin-fixed paraffin-embedded samples for shipment for histology analysis (H&E and Sirius Red staining), % Sirius Red labelling and NAS scoring.
# A total of 50 slides, each having a single hepatic lobe section stained with H&E (25) and Sirius red (25) were digitized using a Nanozoomer from Hamamatsu at Sciempath laboratory and posted on a secured digital slide server. They were downloaded and visualized using NDP viewer. Sections were evaluated with knowledge of groups but without knowledge of treatment. Each section was evaluated and individually scored.
# A NAFLD scoring system (NAS), with which a total of four variables was qualitatively assessed and ranked with a score: (1) hepatocellular steatosis, (2) liver inflammation, (3) lobular fibrosis, and (4) hepatocyte ballooning.
# An individual mouse NAS total score was calculated for each animal by summing up the score for (1) hepatocellular steatosis, (2) liver inflammation, (3) lobular fibrosis, and (4) hepatocyte ballooning. Whole-section histomorphometric measurements of positive area for Sirius Red were performed using computer-assisted image analysis on digitized sections. The histomorphometric measurements were generated with the software from Visiopharm (Denmark) using an automated approach. Analysis was performed on virtual whole sections at 20× magnification for morphometric evaluation. The pixel value at 20× magnification corresponded to 0.46 μm/pixel.
# An algorithm was prepared for Sirius Red (SR) morphometric measurement on liver-stained sections. The algorithm was generated with the Bayesian linear segmentation tool in the software package, which was further refined through training on a subset of sections from 5 animals. Major histology section artefacts, as well as, large vascular empty spaces were automatically dissected and removed from area of interest (AOI) or detected positive area. Also, positive collagen from capsule and large vessels media layer was automatically excluded from SR positive area.
# The total area analysed or AOI (mm2), the total SR positive area (mm2) and the percent “SR” area/total liver area analysed (%) were determined. […]
# [3] = CCl4 mice, oral gavage once daily, 2 weeks
compound,measurement,setting,value
"Cc1cc(NC(=S)/C(C#N)=C(\O)C2CC2)ccc1[N+](=O)[O-] [HK3, 2-Cyano-3-cyclopropyl-3-hydroxy-N-(3-methyl-4-nitro-phenyl)-thioacrylamide]",IL-8 levels compared to NASH,[1],80-91%
same,percentage of Sirius Red labelling compared to baseline group,"[2]; CCl4 mice, liver sections, p<0.01",significantly increased
same,percentage of Sirius Red labelling compared to the vehicle group,"[2]; CCl4 mice, liver sections, p<0.05",significantly reduced
same,number of mice with a fibrosis score equal to 2,"[2]; CCl4 mice, n=10/group",9 mice
same,number of mice with a fibrosis score equal to 3,"[2]; CCl4 mice, n=10/group",1 mouse
same,body weight and body weight gain compared to vehicle treatment,[2]; [3],not altered
same,liver weight and relative liver weight compared to vehicle treatment,[2]; [3],did not change
same,plasma ALT and AST levels compared to vehicle treatment,[2]; [3],did not change
same,"fibrosis score, treated group versus vehicle-treated group","[2]; CCl4 mice, p<0.05",significant difference
same,"fibrosis score, treated group versus baseline group","[2]; CCl4 mice, baseline = CCl4 for two weeks only",no significant difference
same,TNF-α levels in liver homogenates compared to CCl4-treated group,"[2]; combined administration with CCl4, p<0.05",slight but significant downregulation

# Reference: US20260191815A1, “THIOACRYLAMIDE DERIVATIVES FOR USE IN THE PREVENTION OR TREATMENT OF LIVER FIBROSIS” (CMR CUREDIAB METABOLIC RESEARCH GMBH, priority 2022, published 2026)
